Experimental findings from patent US20260297085A1, “1 H-PYRROLO[2,3-B]PYRIDIN-4-YL]-2-OXOPYRROLIDINE-3-CARBONITRILE DERIVATIVES AS TYROSINE KINASE 2 (TYK2) INHIBITORS FOR THE TREATMENT OF INFLAMMATORY DISEASES” (BIOGEN MA INC., priority 2023, published 2026) are described below.

Structures can show the parent of a compound that is named as a salt. A value given as a limit tells only on which side of the number the result lay.

The target in experiment [1] is T1, human TYK2 kinase domain (JH1) (Homo sapiens, UniProt P29597).
T1 construct: recombinantly generated catalytic kinase (also known as JH1) domain of human JAK1, JAK2, JAK3 and TYK2
T1 sequence (P29597 897-1176 limits assumed): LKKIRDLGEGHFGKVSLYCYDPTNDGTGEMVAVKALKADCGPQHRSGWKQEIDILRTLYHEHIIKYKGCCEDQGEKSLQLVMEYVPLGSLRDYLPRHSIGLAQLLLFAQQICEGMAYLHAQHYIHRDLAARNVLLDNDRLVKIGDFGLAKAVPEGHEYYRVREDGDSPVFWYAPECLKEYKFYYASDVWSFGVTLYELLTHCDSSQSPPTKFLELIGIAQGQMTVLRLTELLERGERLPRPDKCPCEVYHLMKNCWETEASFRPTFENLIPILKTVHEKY
The experiment is described as follows: JH1 biochemical assay for TYK2 (ADP-Glo kinase assay, recombinant JH1 catalytic domain, JAK3-974 peptide, 10 μM ATP). The following applies: JH1 kinase domain, ADP-Glo. The method, boiled down:
(§1)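 Luminescent ADP read-out after residual ATP depletion, 100 min reaction. Kinase domain concentrations were 4 nM (JAK1), 0.2 nM (JAK2), 0.3 nM (JAK3) and 2 nM (TYK2), each with 50 μM peptide. IC50 values came from 4-parameter logistic fits over 11 points, 3-fold steps, top 10 μM or 1 μM.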

The target of experiment [2] is T2, human JAK1 kinase domain (JH1) (Homo sapiens, UniProt P23458).
T2 construct: recombinantly generated catalytic kinase (also known as JH1) domain of human JAK1, JAK2, JAK3 and TYK2
The experiment is described as follows: JH1 biochemical assay for JAK1 (ADP-Glo kinase assay, recombinant JH1 catalytic domain, JAK3-342 peptide, 35 μM ATP). The following applies: JH1 kinase domain, ADP-Glo. In short, it runs like this: as §1
For orientation: In ADP-Glo the light output rises with the ADP produced.

The target of experiment [3] is T3, human JAK2 kinase domain (JH1) (Homo sapiens, UniProt O60674).
T3 construct: recombinantly generated catalytic kinase (also known as JH1) domain of human JAK1, JAK2, JAK3 and TYK2
The experiment is described as follows: JH1 biochemical assay for JAK2 (ADP-Glo kinase assay, recombinant JH1 catalytic domain, JAK3-974 peptide, 15 μM ATP). The conditions noted are these: JH1 kinase domain, ADP-Glo. The method, boiled down:
as §1

The target of experiment [4] is T4, human JAK3 kinase domain (JH1) (Homo sapiens, UniProt P52333).
T4 construct: recombinantly generated catalytic kinase (also known as JH1) domain of human JAK1, JAK2, JAK3 and TYK2
The experiment is described as follows: JH1 biochemical assay for JAK3 (ADP-Glo kinase assay, recombinant JH1 catalytic domain, JAK3-974 peptide, 4 μM ATP). The following applies: JH1 kinase domain, ADP-Glo. In short, it runs like this:
as §1

For experiment [5], the target named is Tyk2 kinase activity on STAT4 in NK92 cells (Homo sapiens, UniProt P29597). The experiment is described as follows: pSTAT4 cell assay (MSD; NK92 cells, 30 ng/mL IL2 stimulation). The format is cell-based. The conditions noted are these: 30 ng/mL IL2, 15 minutes. In short, it runs like this: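 Compound treatment of starved NK92 cells ran 1 hr before a 15-minute, 30 ng/mL IL2 pulse; lysates went to an MSD anti-STAT4 antibody assay, with curves fitted by 4-parameter logistic model.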

Experiment [6] addresses JAK2 kinase activity on STAT5 in TF1 cells (Homo sapiens, UniProt O60674). The experiment is described as follows: pSTAT5 cell assay (MSD; TF1 cells, 30 ng/mL IL-3 stimulation). The format is cell-based. The following applies: 30 ng/mL IL-3, 15 minutes. In short, it runs like this:
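IC50 from a 4-parameter logistic fit of normalized pSTAT5 signal, measured by MSD in lysates of TF1 cells. Cells were serum-starved, exposed to compound for 1 h (top concentration 10 μM, four-fold, 10 points), then given IL-3 at 30 ng/mL for 15 min.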

Experiment [7] concerns the target JAK1 kinase activity on STAT3 in TF1 cells (Homo sapiens, UniProt P23458). The experiment is described as follows: pSTAT3 cell assay (MSD; TF1 cells, 30 ng/mL IL-6 stimulation). The format is cell-based. The following applies: 30 ng/mL IL-6, 15 minutes. In short, it runs like this: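 IC50 values reflect 4-parameter logistic fits of normalized pSTAT3 signal, measured by MSD in lysed TF1 cells. Cells were serum-starved and treated with compound for 1 h (top concentration 10 μM) before a 15 min IL-6 challenge.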

T4 sequence (P52333 822-1111 limits assumed): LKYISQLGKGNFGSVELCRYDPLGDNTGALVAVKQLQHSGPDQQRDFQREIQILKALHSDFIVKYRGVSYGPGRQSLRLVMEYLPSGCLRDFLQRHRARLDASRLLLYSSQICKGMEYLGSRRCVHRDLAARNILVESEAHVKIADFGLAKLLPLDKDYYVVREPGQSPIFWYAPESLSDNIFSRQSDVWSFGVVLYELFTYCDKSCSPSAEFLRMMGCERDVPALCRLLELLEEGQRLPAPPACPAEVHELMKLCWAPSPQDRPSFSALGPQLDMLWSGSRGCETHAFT
T3 sequence (O60674 849-1124 limits assumed): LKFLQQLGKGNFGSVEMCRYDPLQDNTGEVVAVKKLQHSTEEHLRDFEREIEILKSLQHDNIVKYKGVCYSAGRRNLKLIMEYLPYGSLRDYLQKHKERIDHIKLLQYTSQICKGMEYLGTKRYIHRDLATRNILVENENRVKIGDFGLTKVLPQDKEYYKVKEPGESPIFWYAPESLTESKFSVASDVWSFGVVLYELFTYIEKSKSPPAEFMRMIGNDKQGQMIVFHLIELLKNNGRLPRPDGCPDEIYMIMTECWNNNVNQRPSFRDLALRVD
JAK1 kinase activity on STAT3 in TF1 cells, sequence (P23458 whole entry): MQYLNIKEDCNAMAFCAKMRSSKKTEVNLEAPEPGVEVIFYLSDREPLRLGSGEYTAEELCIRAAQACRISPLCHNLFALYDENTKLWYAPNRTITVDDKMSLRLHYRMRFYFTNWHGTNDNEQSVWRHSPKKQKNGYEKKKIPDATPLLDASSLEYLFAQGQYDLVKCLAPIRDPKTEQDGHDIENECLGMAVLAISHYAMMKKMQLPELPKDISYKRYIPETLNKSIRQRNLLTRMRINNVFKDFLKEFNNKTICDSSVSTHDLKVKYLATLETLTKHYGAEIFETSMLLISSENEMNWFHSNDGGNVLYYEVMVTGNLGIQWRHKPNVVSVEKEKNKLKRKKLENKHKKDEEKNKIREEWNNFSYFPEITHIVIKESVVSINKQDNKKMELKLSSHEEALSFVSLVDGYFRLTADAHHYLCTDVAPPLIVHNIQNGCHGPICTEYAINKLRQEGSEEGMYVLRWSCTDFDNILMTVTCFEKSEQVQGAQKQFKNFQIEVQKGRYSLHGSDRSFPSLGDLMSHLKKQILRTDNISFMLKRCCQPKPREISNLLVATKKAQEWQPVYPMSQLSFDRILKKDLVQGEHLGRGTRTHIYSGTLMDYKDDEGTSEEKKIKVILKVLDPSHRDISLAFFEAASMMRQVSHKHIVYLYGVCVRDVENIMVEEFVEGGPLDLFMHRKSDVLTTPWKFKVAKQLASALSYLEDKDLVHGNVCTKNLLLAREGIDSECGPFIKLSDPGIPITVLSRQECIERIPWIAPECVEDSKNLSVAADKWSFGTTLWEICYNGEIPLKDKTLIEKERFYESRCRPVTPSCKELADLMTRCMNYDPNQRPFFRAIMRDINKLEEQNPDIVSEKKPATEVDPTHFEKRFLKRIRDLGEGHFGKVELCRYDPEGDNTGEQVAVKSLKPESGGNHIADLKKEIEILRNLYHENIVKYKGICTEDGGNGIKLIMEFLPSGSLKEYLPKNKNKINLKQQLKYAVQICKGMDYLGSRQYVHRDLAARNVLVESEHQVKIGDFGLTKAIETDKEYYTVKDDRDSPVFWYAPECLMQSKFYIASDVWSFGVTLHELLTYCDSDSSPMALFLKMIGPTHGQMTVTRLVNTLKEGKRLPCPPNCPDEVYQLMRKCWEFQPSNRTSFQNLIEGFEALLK
JAK2 kinase activity on STAT5 in TF1 cells, sequence (O60674 whole entry): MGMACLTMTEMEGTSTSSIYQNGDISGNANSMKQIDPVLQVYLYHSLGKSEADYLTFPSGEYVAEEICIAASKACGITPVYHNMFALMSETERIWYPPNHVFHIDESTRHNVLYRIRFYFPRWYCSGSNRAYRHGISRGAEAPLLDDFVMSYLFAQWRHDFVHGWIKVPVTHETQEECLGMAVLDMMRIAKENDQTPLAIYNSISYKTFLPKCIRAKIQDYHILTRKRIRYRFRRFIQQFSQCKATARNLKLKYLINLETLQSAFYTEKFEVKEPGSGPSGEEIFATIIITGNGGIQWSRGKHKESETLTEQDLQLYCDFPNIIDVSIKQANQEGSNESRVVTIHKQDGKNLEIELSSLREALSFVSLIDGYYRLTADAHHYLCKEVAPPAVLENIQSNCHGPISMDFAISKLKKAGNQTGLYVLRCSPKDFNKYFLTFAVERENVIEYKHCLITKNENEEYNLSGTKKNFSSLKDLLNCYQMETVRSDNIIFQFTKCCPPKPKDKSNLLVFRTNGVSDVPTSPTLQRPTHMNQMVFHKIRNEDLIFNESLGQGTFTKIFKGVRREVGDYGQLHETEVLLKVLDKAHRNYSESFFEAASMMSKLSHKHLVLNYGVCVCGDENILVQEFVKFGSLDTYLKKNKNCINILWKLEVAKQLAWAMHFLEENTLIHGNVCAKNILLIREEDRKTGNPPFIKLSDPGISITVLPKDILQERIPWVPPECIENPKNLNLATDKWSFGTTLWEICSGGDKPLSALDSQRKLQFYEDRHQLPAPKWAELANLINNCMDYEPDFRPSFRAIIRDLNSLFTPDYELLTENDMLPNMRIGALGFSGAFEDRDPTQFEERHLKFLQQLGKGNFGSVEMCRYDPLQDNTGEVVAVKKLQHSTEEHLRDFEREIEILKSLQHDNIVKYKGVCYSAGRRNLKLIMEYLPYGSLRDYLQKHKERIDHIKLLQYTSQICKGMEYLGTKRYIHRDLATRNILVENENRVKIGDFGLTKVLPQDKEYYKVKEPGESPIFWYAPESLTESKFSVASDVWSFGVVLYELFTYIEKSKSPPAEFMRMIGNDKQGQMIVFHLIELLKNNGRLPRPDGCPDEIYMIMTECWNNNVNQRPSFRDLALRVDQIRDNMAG
T2 sequence (P23458 875-1153 limits assumed): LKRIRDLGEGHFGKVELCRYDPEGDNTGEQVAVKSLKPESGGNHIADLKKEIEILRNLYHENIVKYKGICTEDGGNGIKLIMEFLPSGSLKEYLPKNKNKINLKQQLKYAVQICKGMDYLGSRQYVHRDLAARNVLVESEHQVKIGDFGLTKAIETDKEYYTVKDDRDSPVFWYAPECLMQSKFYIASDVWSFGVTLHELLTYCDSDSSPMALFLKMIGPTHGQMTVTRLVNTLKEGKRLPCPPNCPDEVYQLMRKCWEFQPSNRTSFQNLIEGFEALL
Tyk2 kinase activity on STAT4 in NK92 cells, sequence (P29597 whole entry): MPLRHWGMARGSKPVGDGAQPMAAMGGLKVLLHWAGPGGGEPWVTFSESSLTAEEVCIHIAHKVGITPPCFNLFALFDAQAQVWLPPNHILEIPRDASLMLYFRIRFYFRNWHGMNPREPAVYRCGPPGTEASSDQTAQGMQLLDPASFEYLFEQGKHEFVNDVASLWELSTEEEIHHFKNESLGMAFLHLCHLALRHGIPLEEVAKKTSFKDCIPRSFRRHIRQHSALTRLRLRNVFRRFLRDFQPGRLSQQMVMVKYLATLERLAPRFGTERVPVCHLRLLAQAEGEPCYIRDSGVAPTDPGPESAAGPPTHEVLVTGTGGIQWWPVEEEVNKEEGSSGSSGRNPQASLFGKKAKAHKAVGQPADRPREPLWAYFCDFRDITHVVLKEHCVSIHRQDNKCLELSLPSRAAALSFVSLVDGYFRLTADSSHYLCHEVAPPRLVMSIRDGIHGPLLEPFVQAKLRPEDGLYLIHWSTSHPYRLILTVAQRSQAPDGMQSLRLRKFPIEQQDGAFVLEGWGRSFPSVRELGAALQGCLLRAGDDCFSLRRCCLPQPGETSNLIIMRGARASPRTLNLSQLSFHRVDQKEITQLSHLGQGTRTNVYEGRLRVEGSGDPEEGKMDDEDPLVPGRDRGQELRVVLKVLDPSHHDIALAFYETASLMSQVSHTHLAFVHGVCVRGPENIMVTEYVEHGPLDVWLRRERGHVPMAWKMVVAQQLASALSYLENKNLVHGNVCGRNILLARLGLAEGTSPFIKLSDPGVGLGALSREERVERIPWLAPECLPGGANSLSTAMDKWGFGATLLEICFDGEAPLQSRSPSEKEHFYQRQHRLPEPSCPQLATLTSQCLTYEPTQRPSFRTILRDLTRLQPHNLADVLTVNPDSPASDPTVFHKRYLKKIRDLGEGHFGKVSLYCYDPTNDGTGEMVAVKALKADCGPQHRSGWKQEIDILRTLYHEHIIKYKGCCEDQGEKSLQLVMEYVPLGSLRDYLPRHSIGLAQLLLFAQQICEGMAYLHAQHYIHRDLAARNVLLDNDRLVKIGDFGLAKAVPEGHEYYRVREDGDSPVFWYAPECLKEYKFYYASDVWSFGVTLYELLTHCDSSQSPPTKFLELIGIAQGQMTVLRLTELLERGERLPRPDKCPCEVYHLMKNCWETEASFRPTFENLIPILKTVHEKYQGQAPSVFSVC

`C[C@@H]1CN(c2ccnn3cc(-c4cnn(C5CCCC5)c4)cc23)C(=O)[C@]1(C#N)C1CC1` [Example 170, (3R,4S)-1-(6-(1-cyclopentyl-1H-pyrazol-4-yl)pyrrolo[1,2-b]pyridazin-4-yl)-3-cyclopropyl-4-methyl-2-oxopyrrolidine-3-carbonitrile]: the IC50 is under 5 nM in experiment [1]; under 100 nM in experiment [2]; under 100 nM in experiment [3]; under 100 nM in experiment [4]; over 100 nM in experiment [5]; 5000 to 10000 nM in experiment [6]. Moreover, the IC50 in experiment [7] was in the range of 5000 to 10000 nM.
Consider `C[C@@H]1CN(c2ccnn3cc(-c4cnn5c4CCC5)cc23)C(=O)[C@]1(C#N)C1CC1` [Example 171, (3R,4S)-3-cyclopropyl-1-(6-(5,6-dihydro-4H-pyrrolo[1,2-b]pyrazol-3-yl)pyrrolo[1,2-b]pyridazin-4-yl)-4-methyl-2-oxopyrrolidine-3-carbonitrile], for which the IC50 is 5 to 20 nM in experiment [1]; 100 to 1000 nM in experiment [2]; 100 to 1000 nM in experiment [3]; 100 to 1000 nM in experiment [4]; over 100 nM in experiment [5]; over 10000 nM in experiment [6]. The IC50 in experiment [7] was 5000 to 10000 nM.
On to `CCOCCn1cc(-c2cc3c(N4C[C@@H](C)[C@@](C#N)(C5CC5)C4=O)ccnn3c2)cn1` [Example 172, (3R,4S)-3-cyclopropyl-1-(6-(1-(2-ethoxyethyl)-1H-pyrazol-4-yl)pyrrolo[1,2-b]pyridazin-4-yl)-4-methyl-2-oxopyrrolidine-3-carbonitrile], for which the IC50 in experiment [1] was under 5 nM; in experiment [2] it was 100 to 1000 nM; in experiment [3], 100 to 1000 nM; in experiment [4], 100 to 1000 nM; in experiment [5] it was over 100 nM; in experiment [6], 5000 to 10000 nM. The compound further came in with an IC50 in experiment [7] of 1000 to 5000 nM.
Turning to `CCc1ccc(-c2cc3c(N4C[C@@H](C)[C@@](C#N)(C5CC5)C4=O)ccnn3c2)cn1` [Example 174, (3R,4S)-3-cyclopropyl-1-(6-(6-ethylpyridin-3-yl)pyrrolo[1,2-b]pyridazin-4-yl)-4-methyl-2-oxopyrrolidine-3-carbonitrile trifluoroacetate], the IC50 is 5 to 20 nM in experiment [1]; 100 to 1000 nM in experiment [2]; 100 to 1000 nM in experiment [3]; 100 to 1000 nM in experiment [4]; 50 to 100 nM in experiment [5]; 5000 to 10000 nM in experiment [6]. In experiment [7], this compound yielded an IC50 of 1000 to 5000 nM.
For `C[C@@H]1CN(c2ccnn3cc(-c4ccc(OC(F)F)nc4)cc23)C(=O)[C@]1(C#N)C1CC1` [Example 176, (3R,4S)-3-cyclopropyl-1-(6-(6-(difluoromethoxy)pyridin-3-yl)pyrrolo[1,2-b]pyridazin-4-yl)-4-methyl-2-oxopyrrolidine-3-carbonitrile], the IC50 in experiment [1] is 5 to 20 nM; in experiment [2], 100 to 1000 nM; in experiment [3], 1000 to 5000 nM; in experiment [4], 100 to 1000 nM; in experiment [5], over 100 nM; in experiment [6], over 10000 nM. In experiment [7], the IC50 was 5000 to 10000 nM.
On to `C[C@@H]1CN(c2ncnn3cc(-c4cnn(C)c4)cc23)C(=O)[C@]1(C#N)C1CC1` [Example 180, (3R,4S)-3-cyclopropyl-4-methyl-1-(6-(1-methyl-1H-pyrazol-4-yl)pyrrolo[2,1-f][1,2,4]triazin-4-yl)-2-oxopyrrolidine-3-carbonitrile], for which the IC50 in experiment [1] was over 100 nM; in experiment [2], over 10000 nM; in experiment [3], 5000 to 10000 nM; in experiment [4], over 10000 nM; in experiment [5], over 100 nM; in experiment [6] it was 5000 to 10000 nM. Also, the IC50 in experiment [7] lay within 1000 to 5000 nM.
`C[C@@H]1CN(c2ccnc3[nH]c(-c4cnn(C)c4)nc23)C(=O)[C@]1(C#N)C1CC1` [Example 181, (3R,4S)-3-cyclopropyl-4-methyl-1-(2-(1-methyl-1H-pyrazol-4-yl)-3H-imidazo[4,5-b]pyridin-7-yl)-2-oxopyrrolidine-3-carbonitrile]: the IC50 in experiment [1] was 5 to 20 nM; in experiment [2] it was 100 to 1000 nM; in experiment [3] it was 100 to 1000 nM; in experiment [4], 100 to 1000 nM; in experiment [5], over 100 nM; in experiment [6], 5000 to 10000 nM. In experiment [7], this compound came in with an IC50 of 1000 to 5000 nM.
Take `C[C@@H]1CN(c2ccnn3cc(-c4cnn(C)c4)nc23)C(=O)[C@]1(C#N)C1CC1` [Example 182, (3R,4S)-3-cyclopropyl-4-methyl-1-(2-(1-methyl-1H-pyrazol-4-yl)imidazo[1,2-b]pyridazin-8-yl)-2-oxopyrrolidine-3-carbonitrile]: the IC50 in experiment [1] is 20 to 50 nM; in experiment [2], 100 to 1000 nM; in experiment [3] it was 100 to 1000 nM; in experiment [4] it was 100 to 1000 nM; in experiment [5], over 100 nM; in experiment [6], over 10000 nM. Also, in experiment [7], the IC50 lay within 5000 to 10000 nM.
As for `C[C@@H]1CN(c2nc(-c3cnn(C)c3)cn3nccc23)C(=O)[C@]1(C#N)C1CC1` [Example 184, (3R,4S)-3-cyclopropyl-4-methyl-1-(6-(1-methyl-1H-pyrazol-4-yl)pyrazolo[1,5-a]pyrazin-4-yl)-2-oxopyrrolidine-3-carbonitrile], the IC50 is under 5 nM in experiment [1]; under 100 nM in experiment [2]; under 100 nM in experiment [3]; under 100 nM in experiment [4]; 20 to 50 nM in experiment [5]; 100 to 1000 nM in experiment [6]. In experiment [7], this compound had an IC50 of 100 to 1000 nM.
`C[C@@H]1CN(c2nc(-c3cnn(C(F)F)c3)cn3nccc23)C(=O)[C@]1(C#N)C1CC1` [Example 185, (3R,4S)-3-cyclopropyl-1-(6-(1-(difluoromethyl)-1H-pyrazol-4-yl)pyrazolo[1,5-a]pyrazin-4-yl)-4-methyl-2-oxopyrrolidine-3-carbonitrile]: the IC50 in experiment [1] was under 5 nM; in experiment [2], under 100 nM; in experiment [3] it was under 100 nM; in experiment [4], under 100 nM; in experiment [5], 20 to 50 nM; in experiment [6], 100 to 1000 nM. For the same compound, in experiment [7], the IC50 was in the range of 100 to 1000 nM.
Regarding `Cc1cnn2cc(-c3cnn(C)c3)nc(N3C[C@@H](C)[C@@](C#N)(C4CC4)C3=O)c12` [Example 186, (3R,4S)-3-cyclopropyl-4-methyl-1-(3-methyl-6-(1-methyl-1H-pyrazol-4-yl)pyrazolo[1,5-a]pyrazin-4-yl)-2-oxopyrrolidine-3-carbonitrile], the IC50 in experiment [1] is 50 to 100 nM; in experiment [2], 1000 to 5000 nM; in experiment [3], 1000 to 5000 nM; in experiment [4], 100 to 1000 nM; in experiment [5] it was over 100 nM; in experiment [6], over 10000 nM. For the same compound, in experiment [7], the IC50 is over 10000 nM.
On to `C[C@@H]1CN(c2nc(-c3cnn(C)c3)cn3ncc(F)c23)C(=O)[C@]1(C#N)C1CC1` [Example 187, (3R,4S)-3-cyclopropyl-1-(3-fluoro-6-(1-methyl-1H-pyrazol-4-yl)pyrazolo[1,5-a]pyrazin-4-yl)-4-methyl-2-oxopyrrolidine-3-carbonitrile], for which the IC50 was under 5 nM in experiment [1]; under 100 nM in experiment [2]; 100 to 1000 nM in experiment [3]; under 100 nM in experiment [4]; 50 to 100 nM in experiment [5]; 1000 to 5000 nM in experiment [6]. The IC50 in experiment [7] fell in the range of 1000 to 5000 nM.

By IC50 is commonly meant the concentration that inhibits the measured activity by half.
